Reference: patent US10131652B2, “Pyrimidinyloxy benzene derivatives as herbicides” (E. I. DU PONT DE NEMOURS AND COMPANY, priority 2014, dated 2018)
Like-named read-outs stand apart in the source and are kept apart here.

What was measured:
Test in all cases: Test F pre-/postemergence plant response
Type in all cases: in vivo
[1] = tested on: arrowleaf sida (Sida rhombifolia); conditions: Sida rhombifolia, scale 0 to 100, read-out: Plant response rating, Arrowleaf Sida
Procedure, shortened: (§1)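 Values are visual ratings, where 100 is complete control and 0 is no effect, given after 14 to 21 days of greenhouse growth. Test chemicals in a non-phytotoxic, surfactant-containing solvent were sprayed on soil just after planting or on emerged seedlings at the 1- to 4-leaf stage.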

[2] = tested on: barnyardgrass (Echinochloa crus-galli); conditions: Echinochloa crus-galli, scale 0 to 100, read-out: Plant response rating, Barnyardgrass
Procedure, shortened: as §1

corn (Zea mays) = conditions: Zea mays, scale 0 to 100
Procedure, shortened: as §1

[3] = tested on: dayflower (Virginia (VA) dayflower, Commelina virginica); conditions: Commelina virginica, scale 0 to 100, read-out: Plant response rating, Dayflower, VA
Procedure, shortened: as §1

[4] = tested on: fall panicum (Panicum dichotomiflorum); conditions: Panicum dichotomiflorum, scale 0 to 100, read-out: Plant response rating, Panicum, Fall
Procedure, shortened: as §1

[5] = tested on: giant foxtail (Setaria faberii); conditions: Setaria faberi, pre-emergence, scale 0 to 100, read-out: Plant response rating, Foxtail, Giant
Procedure, shortened: as §1

[6] = tested on: green foxtail (Setaria viridis); conditions: Setaria viridis, pre-emergence, Preemergence, scale 0 to 100, read-out: Plant response rating, Foxtail, Green
Procedure, shortened: as §1

[7] = tested on: johnsongrass (Sorghum halepense); conditions: Sorghum halepense, pre-emergence, scale 0 to 100, read-out: Plant response rating, Johnsongrass
Procedure, shortened: as §1

[8] = tested on: large (Lg) crabgrass (Digitaria sanguinalis); conditions: Digitaria sanguinalis, pre-emergence, scale 0 to 100, read-out: Plant response rating, Crabgrass, Large
Procedure, shortened: as §1

[9] = tested on: morningglory (Ipomoea coccinea); conditions: Ipomoea, pre-emergence, scale 0 to 100, read-out: Plant response rating, Morningglory
Procedure, shortened: as §1

[10] = tested on: palmer pigweed (Amaranthus palmeri); conditions: Amaranthus palmeri, scale 0 to 100, read-out: Plant response rating, Pigweed, Palmer
Procedure, shortened: as §1

[11] = tested on: ragweed (common ragweed, Ambrosia elatior); conditions: Ambrosia artemisiifolia, scale 0 to 100, read-out: Plant response rating, Ragweed
Procedure, shortened: as §1

[12] = tested on: sandbur (southern sandbur, Cenchrus echinatus); conditions: Cenchrus echinatus, scale 0 to 100, read-out: Plant response rating, Sandbur
Procedure, shortened: as §1

soybean (Glycine max) = conditions: Glycine max, scale 0 to 100, read-out: Plant response rating, Soybean
Procedure, shortened: as §1

[13] = tested on: surinam grass (Brachiaria decumbens); conditions: Urochloa decumbens, pre-emergence, scale 0 to 100, read-out: Plant response rating, Surinam Grass
Procedure, shortened: as §1

[14] = tested on: waterhemp (common waterhemp, Amaranthus rudis); conditions: Amaranthus tuberculatus, scale 0 to 100, read-out: Plant response rating, Waterhemp
Procedure, shortened: as §1

[15] = post-emergence, 16 g ai/ha Postemergence
[16] = post-emergence, 31 g ai/ha Postemergence
[17] = post-emergence, 62 g ai/ha Postemergence
[18] = post-emergence, 125 g ai/ha Postemergence
[19] = pre-emergence, 16 g ai/ha Preemergence
[20] = pre-emergence, 31 g ai/ha Preemergence
[21] = pre-emergence, 62 g ai/ha Preemergence
[22] = pre-emergence, 125 g ai/ha Preemergence

Fc1cccc(Oc2ncc(Br)cn2)c1-c1cc(C(F)F)no1 [Compound 145, 5-bromo-2-[2-[3-(difluoromethyl)-5-isoxazolyl]-3-fluorophenoxy]pyrimidine]
pest or weed control at 16 g/ha [1, 15]: 95% | pest or weed control at 31 g/ha [1, 16]: 95% | pest or weed control at 62 g/ha [1, 17]: 98% | pest or weed control at 125 g/ha [1, 18]: 95% | pest or weed control at 16 g/ha [1, 19]: 65% | pest or weed control at 31 g/ha [1, 20]: 90% | pest or weed control at 62 g/ha [1, 21]: 98% | pest or weed control at 125 g/ha [1, 22]: 98% | pest or weed control at 16 g/ha [2, 15]: 10% | pest or weed control at 31 g/ha [2, 16]: 25% | pest or weed control at 62 g/ha [2, 17]: 50% | pest or weed control at 125 g/ha [2, 18]: 70% | pest or weed control at 16 g/ha [2, 19]: 0% | pest or weed control at 31 g/ha [2, 20]: 5% | pest or weed control at 62 g/ha [2, 21]: 30% | pest or weed control at 125 g/ha [2, 22]: 75% | Corn plant response rating (crop injury, 0 = no effect, 100 = complete kill) at 16 g/ha (corn (Zea mays); [15]): 5% | Corn plant response rating (crop injury, 0 = no effect, 100 = complete kill) at 31 g/ha (corn (Zea mays); [16]): 10% | Corn plant response rating (crop injury, 0 = no effect, 100 = complete kill) at 62 g/ha (corn (Zea mays); [17]): 20% | Corn plant response rating (crop injury, 0 = no effect, 100 = complete kill) at 125 g/ha (corn (Zea mays); [18]): 20% | Corn plant response rating (crop injury, 0 = no effect, 100 = complete kill) at 16 g/ha (corn (Zea mays); [19]): 0% | Corn plant response rating (crop injury, 0 = no effect, 100 = complete kill) at 31 g/ha (corn (Zea mays); [20]): 0% | Corn plant response rating (crop injury, 0 = no effect, 100 = complete kill) at 62 g/ha (corn (Zea mays); [21]): 40% | Corn plant response rating (crop injury, 0 = no effect, 100 = complete kill) at 125 g/ha (corn (Zea mays); [22]): 60% | pest or weed control at 16 g/ha [3, 15]: 50% | pest or weed control at 31 g/ha [3, 16]: 60% | pest or weed control at 62 g/ha [3, 17]: 75% | pest or weed control at 125 g/ha [3, 18]: 85% | pest or weed control at 16 g/ha [3, 19]: 0% | pest or weed control at 31 g/ha [3, 20]: 0% | pest or weed control at 62 g/ha [3, 21]: 35% | pest or weed control at 125 g/ha [3, 22]: 70% | pest or weed control at 16 g/ha [4, 15]: 10% | pest or weed control at 31 g/ha [4, 16]: 10% | pest or weed control at 62 g/ha [4, 17]: 50% | pest or weed control at 125 g/ha [4, 18]: 80% | pest or weed control at 16 g/ha [4, 19]: 65% | pest or weed control at 31 g/ha [4, 20]: 80% | pest or weed control at 125 g/ha [4, 22]: 100% | pest or weed control at 62 g/ha ([4]; pre-emergence, Preemergence): 95% | pest or weed control at 16 g/ha ([5]; 16 g ai/ha Preemergence): 0% | pest or weed control at 31 g/ha ([5]; 31 g ai/ha Preemergence): 65% | pest or weed control at 62 g/ha ([5]; 62 g ai/ha Preemergence): 85% | pest or weed control at 125 g/ha ([5]; 125 g ai/ha Preemergence): 100% | pest or weed control at 16 g/ha ([6]; 16 g ai/ha): 5% | pest or weed control at 31 g/ha ([6]; 31 g ai/ha): 40% | pest or weed control at 125 g/ha ([6]; 125 g ai/ha): 100% | pest or weed control at 62 g/ha [6]: 100% | pest or weed control at 16 g/ha ([7]; 16 g ai/ha Preemergence): 0% | pest or weed control at 31 g/ha ([7]; 31 g ai/ha Preemergence): 20% | pest or weed control at 125 g/ha ([7]; 125 g ai/ha Preemergence): 85% | pest or weed control at 62 g/ha ([7]; Preemergence): 100% | pest or weed control at 16 g/ha ([8]; 16 g ai/ha Preemergence): 10% | pest or weed control at 31 g/ha ([8]; 31 g ai/ha Preemergence): 95% | pest or weed control at 62 g/ha ([8]; 62 g ai/ha Preemergence): 98% | pest or weed control at 125 g/ha ([8]; 125 g ai/ha Preemergence): 100% | pest or weed control at 16 g/ha ([9]; 16 g ai/ha Preemergence): 0% | pest or weed control at 31 g/ha ([9]; 31 g ai/ha Preemergence): 10% | pest or weed control at 125 g/ha ([9]; 125 g ai/ha Preemergence): 35% | pest or weed control at 62 g/ha ([9]; Preemergence): 15% | pest or weed control at 16 g/ha [10, 15]: 95% | pest or weed control at 31 g/ha [10, 16]: 100% | pest or weed control at 62 g/ha [10, 17]: 100% | pest or weed control at 125 g/ha [10, 18]: 100% | pest or weed control at 16 g/ha [10, 19]: 100% | pest or weed control at 31 g/ha [10, 20]: 100% | pest or weed control at 125 g/ha [10, 22]: 100% | pest or weed control at 62 g/ha ([10]; pre-emergence, Preemergence): 100% | pest or weed control at 16 g/ha [11, 15]: 30% | pest or weed control at 31 g/ha [11, 16]: 50% | pest or weed control at 62 g/ha [11, 17]: 60% | pest or weed control at 125 g/ha [11, 18]: 70% | pest or weed control at 16 g/ha [11, 19]: 0% | pest or weed control at 31 g/ha [11, 20]: 70% | pest or weed control at 125 g/ha [11, 22]: 80% | pest or weed control at 62 g/ha ([11]; pre-emergence, Preemergence): 65% | pest or weed control at 16 g/ha [12, 15]: 5% | pest or weed control at 31 g/ha [12, 16]: 5% | pest or weed control at 62 g/ha [12, 17]: 5% | pest or weed control at 125 g/ha [12, 18]: 15% | pest or weed control at 16 g/ha [12, 19]: 0% | pest or weed control at 31 g/ha [12, 20]: 35% | pest or weed control at 125 g/ha [12, 22]: 95% | pest or weed control at 62 g/ha ([12]; pre-emergence, Preemergence): 25% | plant injury at 16 g/ha (soybean (Glycine max); [15]): 95% | plant injury at 31 g/ha (soybean (Glycine max); [16]): 95% | plant injury at 62 g/ha (soybean (Glycine max); [17]): 95% | plant injury at 125 g/ha (soybean (Glycine max); [18]): 95% | plant injury at 16 g/ha (soybean (Glycine max); [19]): 0% | plant injury at 31 g/ha (soybean (Glycine max); [20]): 0% | plant injury at 125 g/ha (soybean (Glycine max); [22]): 40% | plant injury at 62 g/ha (soybean (Glycine max); pre-emergence, Preemergence): 15% | pest or weed control at 16 g/ha ([13]; 16 g ai/ha Preemergence): 0% | pest or weed control at 31 g/ha ([13]; 31 g ai/ha Preemergence): 0% | pest or weed control at 125 g/ha ([13]; 125 g ai/ha Preemergence): 25% | pest or weed control at 62 g/ha ([13]; Preemergence): 0% | pest or weed control at 16 g/ha [14, 15]: 95% | pest or weed control at 31 g/ha [14, 16]: 98% | pest or weed control at 62 g/ha [14, 17]: 100% | pest or weed control at 125 g/ha [14, 18]: 100% | pest or weed control at 16 g/ha [14, 19]: 100% | pest or weed control at 31 g/ha [14, 20]: 100% | pest or weed control at 125 g/ha [14, 22]: 100% | pest or weed control at 62 g/ha ([14]; pre-emergence, Preemergence): 100%
